Where two headings read alike, the source gives them in different places.
Molecular target: T1, Androgen Receptor (Homo sapiens, UniProt P10275)
T1 construct: endogenous in cells; host or cells: VCaP cells
T1 sequence (P10275 1-920): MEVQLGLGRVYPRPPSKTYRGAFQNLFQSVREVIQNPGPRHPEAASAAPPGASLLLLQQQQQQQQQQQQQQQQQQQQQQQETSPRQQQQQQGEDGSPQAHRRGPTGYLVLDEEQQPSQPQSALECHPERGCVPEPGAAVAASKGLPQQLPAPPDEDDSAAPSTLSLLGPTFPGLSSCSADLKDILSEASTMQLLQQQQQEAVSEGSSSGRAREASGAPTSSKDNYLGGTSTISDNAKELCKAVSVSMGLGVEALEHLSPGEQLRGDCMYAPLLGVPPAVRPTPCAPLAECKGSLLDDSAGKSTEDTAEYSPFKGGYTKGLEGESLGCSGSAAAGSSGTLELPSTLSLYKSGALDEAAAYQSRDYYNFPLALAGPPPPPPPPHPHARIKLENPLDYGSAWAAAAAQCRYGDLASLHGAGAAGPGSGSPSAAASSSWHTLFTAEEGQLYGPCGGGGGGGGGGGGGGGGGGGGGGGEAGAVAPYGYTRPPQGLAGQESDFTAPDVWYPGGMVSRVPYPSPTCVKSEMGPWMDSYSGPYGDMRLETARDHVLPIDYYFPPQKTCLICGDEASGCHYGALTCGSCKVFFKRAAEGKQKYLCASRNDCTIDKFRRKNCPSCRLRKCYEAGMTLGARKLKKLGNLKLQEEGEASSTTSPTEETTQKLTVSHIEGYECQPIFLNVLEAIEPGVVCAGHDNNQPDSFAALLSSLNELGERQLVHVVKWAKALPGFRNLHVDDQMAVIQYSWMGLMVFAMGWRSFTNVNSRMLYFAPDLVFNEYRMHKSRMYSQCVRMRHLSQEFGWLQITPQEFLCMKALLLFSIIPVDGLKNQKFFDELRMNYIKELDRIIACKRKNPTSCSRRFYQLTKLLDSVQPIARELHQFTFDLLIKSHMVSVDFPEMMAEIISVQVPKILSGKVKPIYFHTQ
Test: Androgen Receptor ELISA assay (PathScan AR ELISA) in VCaP cells: AR degradation, Dmax and DC50
Assay type: cell-based
Summary of the method: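 VCaP cells, 30,000/well, grown ≥3 days in phenol red-free RPMI with 5% charcoal-stripped FBS; compound added in 0.1% DMSO with 0.1 nM R1881, 7 half-log doses, 24 h. Lysate AR quantified by PathScan sandwich ELISA, HRP/TMB read at 450 nm, giving DC50 and Dmax.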

[1] = VCaP cells; Table 36; read-out: VCaP DC50
[2] = read-out: VCaP DC50; VCaP cells; Table 36

In the case of `Cc1ncsc1-c1ccc([C@H](CO)NC(=O)C2C[C@@H](O)CN2C(=O)[C@@H](NC(=O)COCCN2CCCN(c3ccc(C(=O)NC4C(C)(C)C(Oc5ccc(C#N)c(Cl)c5)C4(C)C)cn3)CC2)C(C)(C)C)cc1` (stereo partly drawn) [Example 822, N-((1r,3r)-3-(3-chloro-4-cyanophenoxy)-2,2,4,4-tetramethylcyclobutyl)-6-(4-(2-(2-(((S)-1-((2S, 4R)-4-hydroxy-2-(((R)-2-hydroxy-1-(4-(4-methylthiazol-5-yl)phenyl)ethyl)carbamoyl)pyrrolidin-1-yl)-3,3-dimethyl-1-oxobutan-2-yl)amino)-2-oxoethoxy)ethyl)-1,4-diazepan-1-yl) nicotinamide], the DC50 [1] is reported as under 50 nM and the Dmax (VCaP, VCaP cells; Table 36; read-out: VCaP Dmax (%)) is reported as over 71%.

`Cc1ncsc1-c1ccc(CNC(=O)[C@@H]2C[C@@H](O)CN2C(=O)[C@@H](NC(=O)COc2ccc(OCC#Cc3ccc(N4C(=S)N(c5ccc(C#N)c(C(F)(F)F)c5)C(=O)C4(C)C)cc3)cc2)C(C)(C)C)cc1` [Example 413] showed a Dmax (VCaP, read-out: VCaP Dmax (%)) of 51 to 70% and a DC50 (read-out: VCaP DC50; VCaP cells; Table 34) of under 50 nM.

`Cc1ncsc1-c1ccc([C@H](C)NC(=O)[C@@H]2C[C@@H](O)CN2C(=O)[C@@H](C(C)C)n2cc(OCC3CCN(c4ccc(C(=O)N[C@H]5C(C)(C)[C@H](Oc6ccc(C#N)c(Cl)c6)C5(C)C)cc4)CC3)cn2)cc1` [Example 436] showed a DC50 (VCaP cells; Table 35; read-out: VCaP DC50) of over 501 nM and a Dmax (VCaP, VCaP cells; Table 35; read-out: VCaP Dmax (%)) of 51 to 70%.

For `Cc1nccn1-c1ccc([C@H](C)NC(=O)[C@@H]2C[C@@H](O)CN2C(=O)C(C(C)C)n2cc(OCCCOCCCCCOc3ccc(N4C(=S)N(c5ccc(C#N)c(C(F)(F)F)c5)C(=O)C4(C)C)cc3)cn2)cc1` (stereo in doubt) [Example 612, (2S,4R)-1-((R)-2-(4-(3-((5-(4-(3-(4-cyano-3-(trifluoromethyl)phenyl)-5,5-dimethyl-4-oxo-2-thioxoimidazolidin-1-yl)phenoxy)pentyl)oxy)propoxy)-1H-pyrazol-1-yl)-3-methylbutanoyl)-4-hydroxy-N-((S)-1-(4-(2-methyl-1H-imidazol-1-yl)phenyl)ethyl)pyrrolidine-2-carboxamide], the “VCaP Dmax (%)” value (VCaP cells; Table 36) was “_+” and the DC50 [2] was over 501 nM.

In the case of `Cc1ncsc1-c1ccc(CNC(=O)[C@@H]2C[C@@H](O)CN2C(=O)[C@@H](NC(=O)COCCCCCOc2ccc(C(=O)N[C@H]3C(C)(C)[C@H](Oc4ccc(C#N)c(C(F)(F)F)c4)C3(C)C)cc2)C(C)(C)C)cc1` [Example 155, (2S,4R)-1-[(2S)-3,3-dimethyl-2-(2-{[5-(4-{[trans-3-[4-cyano-3-(trifluoromethyl)phenoxy]-2,2,4,4-tetramethylcyclobutyl]carbamoyl}phen-oxy)pentyl]oxy}acetamido)butanoyl]-4-hydroxy-N-{[4-(4-methyl-1,3-thiazol-5-yl)phenyl]methyl}pyrrolidine-2-carboxamide], the Dmax (VCaP, highest percentage of Androgen Receptor degradation observed, VCaP cells (Table 32); read-out: VCaP Dmax (%)) is reported as over 71% and the DC50 (concentration that caused 50% Androgen Receptor degradation, VCaP cells (Table 32); read-out: VCaP DC50) is reported as under 50 nM.

`Cc1ncsc1-c1ccc([C@H](C)NC(=O)[C@@H]2C[C@@H](O)CN2C(=O)[C@@H](NC(=O)COCCCOCCCCCNc2ccc(N3C(=S)N(c4ccc(C#N)c(C(F)(F)F)c4)C(=O)C3(C)C)cn2)C(C)(C)C)cc1` [Example 618, (2S,4R)-1-((S)-2-(2-(3-((5-((5-(3-(4-cyano-3-(trifluoromethyl)phenyl)-5,5-dimethyl-4-oxo-2-thioxoimidazolidin-1-yl)pyridin-2-yl)amino)pentyl)oxy)pro-poxy)acetamido)-3,3-dimethylbutanoyl)-4-hydroxy-N-((S)-1-(4-(4-methylthiazol-5-yl)phenyl)ethyl)pyrrolidine-2-carboxamide] gave a Dmax (VCaP, read-out: VCaP Dmax (%)) of 51 to 70% and a DC50 [2] of under 50 nM.

Compound `Cc1ncsc1-c1ccc([C@H](C)NC(=O)[C@@H]2C[C@@H](O)CN2C(=O)[C@H](c2cc(CCCCN3CCN(c4ccc(C(=O)N[C@H]5C(C)(C)[C@H](Oc6ccc(C#N)c(Cl)c6)C5(C)C)cn4)CC3)no2)C(C)C)cc1` [Example 830, N-((1r,3r)-3-(3-chloro-4-cyanophenoxy)-2,2,4,4-tetramethylcyclobutyl)-6-(4-(4-(5-((S)-1-((2S, 4R)-4-hydroxy-2-(((S)-1-(4-(4-methylthiazol-5-yl)phenyl)ethyl)carbamoyl)pyrrolidin-1-yl)-3-methyl-1-oxobutan-2-yl)isoxazol-3-yl)butyl)piperazin-1-yl)nicotinamide] has a DC50 [1] of over 501 nM and a Dmax (VCaP, read-out: VCaP Dmax (%), VCaP cells; Table 36) of under 25%.

From patent US11427548B2 (Arvinas Operations, Inc., priority 2015, dated 2022)
